Test results reported in the NIST ThermoML archive (doi:10.1021/je200721d).
± gives the expanded uncertainty stated by the source.

Assay: xn = mol fraction of the nth substance listed
Details: Liquid, Vibrating tube method

CCCCCCCC [octane] + CCCCCC
Details	mass density [kg/m3]
362.88 K, 4000 kPa, x2 = 0.1654	644.35 ± 0.29
362.88 K, 4000 kPa, x2 = 0.2199	642.17 ± 0.3
362.88 K, 5000 kPa, x2 = 0.1654	645.69 ± 0.3
362.88 K, 5000 kPa, x2 = 0.2199	643.54 ± 0.3
362.88 K, 6000 kPa, x2 = 0.1654	647.04 ± 0.31
362.88 K, 6000 kPa, x2 = 0.2199	644.88 ± 0.31
362.88 K, 7000 kPa, x2 = 0.1654	648.35 ± 0.32
362.88 K, 7000 kPa, x2 = 0.2199	646.21 ± 0.32
362.88 K, 8000 kPa, x2 = 0.1654	649.64 ± 0.33
362.88 K, 8000 kPa, x2 = 0.2199	647.53 ± 0.33
362.88 K, 9000 kPa, x2 = 0.1654	650.92 ± 0.34
362.88 K, 9000 kPa, x2 = 0.2199	648.82 ± 0.34
362.88 K, 10000 kPa, x2 = 0.1654	652.16 ± 0.35
362.88 K, 10000 kPa, x2 = 0.2199	650.09 ± 0.35
362.88 K, 11000 kPa, x2 = 0.1654	653.43 ± 0.36
362.88 K, 11000 kPa, x2 = 0.2199	651.35 ± 0.36
362.88 K, 12000 kPa, x2 = 0.1654	654.65 ± 0.37
362.88 K, 12000 kPa, x2 = 0.2199	652.59 ± 0.37
362.88 K, 13000 kPa, x2 = 0.1654	655.84 ± 0.38
362.88 K, 13000 kPa, x2 = 0.2199	653.81 ± 0.38
362.88 K, 14000 kPa, x2 = 0.1654	657.01 ± 0.39
362.88 K, 14000 kPa, x2 = 0.2199	654.99 ± 0.39
362.88 K, 15000 kPa, x2 = 0.1654	658.17 ± 0.4
362.88 K, 15000 kPa, x2 = 0.2199	656.16 ± 0.4
362.88 K, 16000 kPa, x2 = 0.1654	659.3 ± 0.4
362.88 K, 16000 kPa, x2 = 0.2199	657.29 ± 0.41
362.88 K, 17000 kPa, x2 = 0.1654	660.41 ± 0.41
362.88 K, 17000 kPa, x2 = 0.2199	658.42 ± 0.42
362.88 K, 18000 kPa, x2 = 0.1654	661.5 ± 0.42
362.88 K, 18000 kPa, x2 = 0.2199	659.52 ± 0.43
362.88 K, 19000 kPa, x2 = 0.1654	662.58 ± 0.43
362.88 K, 19000 kPa, x2 = 0.2199	660.6 ± 0.44
362.88 K, 20000 kPa, x2 = 0.1654	663.6 ± 0.44
362.88 K, 20000 kPa, x2 = 0.2199	661.65 ± 0.45
362.88 K, 21000 kPa, x2 = 0.1654	664.63 ± 0.45
362.88 K, 21000 kPa, x2 = 0.2199	662.67 ± 0.46
362.88 K, 22000 kPa, x2 = 0.1654	665.63 ± 0.46
362.88 K, 22000 kPa, x2 = 0.2199	663.67 ± 0.46
362.88 K, 23000 kPa, x2 = 0.1654	666.61 ± 0.47
362.88 K, 23000 kPa, x2 = 0.2199	664.66 ± 0.47
362.88 K, 24000 kPa, x2 = 0.1654	667.57 ± 0.48
362.88 K, 24000 kPa, x2 = 0.2199	665.61 ± 0.48
362.88 K, 25000 kPa, x2 = 0.1654	668.52 ± 0.49
362.88 K, 25000 kPa, x2 = 0.2199	666.56 ± 0.49
362.89 K, 1000 kPa, x2 = 0.9308	599.76 ± 0.29
362.89 K, 2000 kPa, x2 = 0.9308	601.55 ± 0.3
362.89 K, 3000 kPa, x2 = 0.9308	603.31 ± 0.31
362.89 K, 4000 kPa, x2 = 0.9308	605.04 ± 0.32
362.89 K, 5000 kPa, x2 = 0.9308	606.72 ± 0.33
362.89 K, 6000 kPa, x2 = 0.9308	608.38 ± 0.34
362.89 K, 7000 kPa, x2 = 0.9308	610.01 ± 0.35
362.89 K, 8000 kPa, x2 = 0.9308	611.58 ± 0.36
362.89 K, 9000 kPa, x2 = 0.9308	613.16 ± 0.37
362.89 K, 10000 kPa, x2 = 0.9308	614.68 ± 0.38
362.89 K, 11000 kPa, x2 = 0.9308	616.17 ± 0.39
362.89 K, 12000 kPa, x2 = 0.9308	617.64 ± 0.4
362.89 K, 13000 kPa, x2 = 0.9308	619.07 ± 0.41
362.89 K, 14000 kPa, x2 = 0.9308	620.48 ± 0.42
362.89 K, 15000 kPa, x2 = 0.9308	621.85 ± 0.43
362.89 K, 16000 kPa, x2 = 0.9308	623.2 ± 0.44
362.89 K, 17000 kPa, x2 = 0.9308	624.51 ± 0.45
362.89 K, 18000 kPa, x2 = 0.9308	625.8 ± 0.46
362.89 K, 19000 kPa, x2 = 0.9308	627.06 ± 0.47
362.89 K, 20000 kPa, x2 = 0.9308	628.28 ± 0.48
362.89 K, 21000 kPa, x2 = 0.9308	629.48 ± 0.5
362.89 K, 22000 kPa, x2 = 0.9308	630.64 ± 0.51
362.89 K, 23000 kPa, x2 = 0.9308	631.79 ± 0.52
362.89 K, 24000 kPa, x2 = 0.9308	632.9 ± 0.53
362.89 K, 25000 kPa, x2 = 0.9308	634.01 ± 0.55
362.9 K, 1000 kPa, x2 = 0.7995	608.76 ± 0.28
362.9 K, 2000 kPa, x2 = 0.7995	610.47 ± 0.29
362.9 K, 3000 kPa, x2 = 0.7995	612.13 ± 0.3
362.9 K, 4000 kPa, x2 = 0.7995	613.77 ± 0.31
362.9 K, 5000 kPa, x2 = 0.7995	615.41 ± 0.32
362.9 K, 6000 kPa, x2 = 0.7995	616.94 ± 0.33
362.9 K, 7000 kPa, x2 = 0.7995	618.5 ± 0.34
362.9 K, 8000 kPa, x2 = 0.7995	620.01 ± 0.35
362.9 K, 9000 kPa, x2 = 0.7995	621.5 ± 0.36
362.9 K, 10000 kPa, x2 = 0.7995	622.96 ± 0.37
362.9 K, 11000 kPa, x2 = 0.7995	624.39 ± 0.38
362.9 K, 12000 kPa, x2 = 0.7995	625.81 ± 0.39
362.9 K, 13000 kPa, x2 = 0.7995	627.18 ± 0.4
362.9 K, 14000 kPa, x2 = 0.7995	628.53 ± 0.41
362.9 K, 15000 kPa, x2 = 0.7995	629.85 ± 0.42
362.9 K, 16000 kPa, x2 = 0.7995	631.14 ± 0.43
362.9 K, 17000 kPa, x2 = 0.7995	632.42 ± 0.44
362.9 K, 18000 kPa, x2 = 0.7995	633.67 ± 0.45
362.9 K, 19000 kPa, x2 = 0.7995	634.88 ± 0.46
362.9 K, 20000 kPa, x2 = 0.7995	636.08 ± 0.48
362.9 K, 21000 kPa, x2 = 0.7995	637.22 ± 0.49
362.9 K, 22000 kPa, x2 = 0.7995	638.34 ± 0.5
362.9 K, 23000 kPa, x2 = 0.7995	639.44 ± 0.51
362.9 K, 24000 kPa, x2 = 0.7995	640.51 ± 0.52
362.9 K, 25000 kPa, x2 = 0.7995	641.57 ± 0.54
